Test results published in patent US20140073637A1, “AMINO-SUBSTITUTED-ALKYLOXY-BENZO[E]PYRIDO[4,3-B]INDOLE DERIVATIVES AS NEW POTENT KINASE INHIBITORS” (INSTITUT CURIE, priority 2011, published 2014).

Assays:
NUAK1 [1] = target: T1, NUAK1 (Homo sapiens, UniProt O60285); test: Nuak1 inhibition in cellulo: LATS1 stabilization by western blot; type: cell-based; conditions: HeLa cells treated ON; whole cell extracts, WB, compared to control
T1 construct: Reaction biology Corp (USA), service
T1 sequence (O60285 1-661): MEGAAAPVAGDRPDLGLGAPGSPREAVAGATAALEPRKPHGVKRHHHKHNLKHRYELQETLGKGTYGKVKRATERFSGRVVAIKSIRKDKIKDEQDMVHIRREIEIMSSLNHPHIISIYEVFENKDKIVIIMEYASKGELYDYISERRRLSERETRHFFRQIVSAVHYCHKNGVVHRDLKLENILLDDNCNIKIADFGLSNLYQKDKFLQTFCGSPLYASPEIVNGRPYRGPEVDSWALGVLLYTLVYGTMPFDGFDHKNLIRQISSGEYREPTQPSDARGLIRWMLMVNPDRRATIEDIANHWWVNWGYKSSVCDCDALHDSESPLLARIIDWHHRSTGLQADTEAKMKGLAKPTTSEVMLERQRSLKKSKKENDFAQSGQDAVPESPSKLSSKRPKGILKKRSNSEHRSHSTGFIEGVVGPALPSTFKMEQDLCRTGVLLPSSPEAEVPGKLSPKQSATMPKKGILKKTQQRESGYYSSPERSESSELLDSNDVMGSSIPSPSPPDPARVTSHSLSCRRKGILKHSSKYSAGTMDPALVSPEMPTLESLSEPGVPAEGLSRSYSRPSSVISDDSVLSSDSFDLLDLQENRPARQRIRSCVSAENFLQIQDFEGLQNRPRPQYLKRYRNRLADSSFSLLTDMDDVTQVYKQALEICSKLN
Description: HeLa cells were treated ON by C21 (also named CH21) and C14M and compared to the control (C0). Whole cell extracts were analyzed by WB with anti LATS1 monoclonal antibody and the loading was quantified through the tubulin signal.
Therefore the possibility of inhibiting Nuakl, in cellulo, was evaluated through the stabilization of the Large Antigen Tumour Suppressor LATS1.
Cells were treated by compounds, harvested and lyzed in 9M urea then supplemented with Laemmli sample buffer. Cell extracts were subjected to SDS-PAGE and transferred to nitrocellulose filter (GE Healthcare). After blocking with 5% non-fat milk in PBS for at least 1 hour, the membranes were incubated with the primary antibodies. The following antibodies were used: phospho-Histone H3 Ser10 (1:2000, Upstate Biotechnology), anti LAST1 (Cell signalling), anti Aurora B (epitomics) and anti alpha-tubulin (Sigma) Anti-rabbit horseradish peroxidase (1:5000, GE Healthcare) was used as secondary antibodies. Bands were visualized by ECL technique (Amersham Bioscience).

Brsk1 = Brsk1 (Homo sapiens, UniProt Q8TDC3); test: Kinase profiling in vitro at 1 μM; type: biochemical; conditions: 1 microMolar in vitro, read-out: Percent of remaining activity
Description: (§1) The specificity of C14 was tested, in vitro, against 121 kinases representative of the kinome. Assays run in duplicate, at the concentration of 1 μM, were performed by MRC (Dundee, UK). Results are represented in FIG. 1. The main targets are highlighted in FIG. 1B. The profiling was performed at the MRC (Dundee University), in duplicate, on a set of 121 kinases. The panel is representative of the major different classes of kinases. Compounds were used at the concentration of 1 μM. In vitro, IC50 were determined on recombinant kinases by Reaction biology Corp (USA).

IRAK4 = IRAK4 (Homo sapiens, UniProt Q9NWZ3); test: Kinase profiling in vitro at 1 μM; type: biochemical; conditions: 1 microMolar in vitro, read-out: Percent of remaining activity
Description: as §1

FGFR1 = FGFR1 (Homo sapiens, UniProt P11362); test: Kinase profiling in vitro at 1 μM; type: biochemical; conditions: 1 microMolar in vitro, read-out: Percent of remaining activity
Description: as §1

CAMKKb = CAMKKb (Homo sapiens, UniProt Q96RR4); test: Kinase profiling in vitro at 1 μM; type: biochemical; conditions: 1 microMolar in vitro, read-out: Percent of remaining activity
Description: as §1

Tak1 = Tak1 (Homo sapiens, UniProt O43318); test: Kinase profiling in vitro at 1 μM; type: biochemical; conditions: 1 microMolar in vitro, read-out: Percent of remaining activity
Description: as §1

MELK = MELK (Homo sapiens, UniProt Q14680); test: Kinase profiling in vitro at 1 μM; type: biochemical; conditions: 1 microMolar in vitro, read-out: Percent of remaining activity
Description: as §1

IR = IR (Homo sapiens, UniProt P06213); test: Kinase profiling in vitro at 1 μM; type: biochemical; conditions: 1 microMolar in vitro, read-out: Percent of remaining activity
Description: as §1

TrkA = TrkA (Homo sapiens, UniProt P04629); test: Kinase profiling in vitro at 1 μM; type: biochemical; conditions: 1 microMolar in vitro, read-out: Percent of remaining activity
Description: as §1

STK33 = STK33 (Homo sapiens, UniProt Q9BYT3); test: Kinase profiling in vitro at 1 μM; type: biochemical; conditions: 1 microMolar in vitro, read-out: Percent of remaining activity
Description: as §1

Jak2 = Jak2 (Homo sapiens, UniProt O60674); test: Kinase profiling in vitro at 1 μM; type: biochemical; conditions: 1 microMolar in vitro, read-out: Percent of remaining activity
Description: as §1

Gck = Gck (Homo sapiens, UniProt Q12851); test: Kinase profiling in vitro at 1 μM; type: biochemical; conditions: 1 microMolar in vitro, read-out: Percent of remaining activity
Description: as §1

NUAK1 [2] = target: T1, NUAK1; test: Kinase profiling in vitro at 1 μM; type: biochemical; conditions: 1 microMolar in vitro, read-out: Percent of remaining activity
Description: as §1

VEGFR = test: Kinase profiling in vitro at 1 μM; type: biochemical; conditions: 1 microMolar in vitro
Description: as §1

Phk = test: Kinase profiling in vitro at 1 μM; type: biochemical; conditions: 1 microMolar in vitro
Description: as §1

MLK1 = MLK1 (Homo sapiens, UniProt P80192); test: Kinase profiling in vitro at 1 μM; type: biochemical; conditions: 1 microMolar in vitro, read-out: Percent of remaining activity
Description: as §1

Quiescent H358 cells = test: Viability of quiescent (serum-deprived) cells; type: cell-based; conditions: 0.5 μM, 96 hours post-treatment, absence of serum
Description: FIG. 5: Quiescent H358 cells were incubated with the compound, for 96 h, in the absence of serum. Three different concentrations of C14 were used and live cells were estimated with MTT (Promega). In the control only DMSO was added.
H358 cells were deprived in serum for 2 days and then incubated with the compound, for 96 h, still in the absence of serum. At the concentration (0.5 μM) that induced death of more than 50% of cycling cells, 90% of the cells are still alive 96 hours post-treatment (FIG. 5). C14 is thus not deleterious for quiescent cells.
Cells were drawn to quiescence by serum withdrawn. After two days of serum deprivations cells were incubated with different concentrations of compounds for 96 hours, serum being still omitted. The viability is determined as described above.

STK33, sequence (Q9BYT3 whole entry, species assumed): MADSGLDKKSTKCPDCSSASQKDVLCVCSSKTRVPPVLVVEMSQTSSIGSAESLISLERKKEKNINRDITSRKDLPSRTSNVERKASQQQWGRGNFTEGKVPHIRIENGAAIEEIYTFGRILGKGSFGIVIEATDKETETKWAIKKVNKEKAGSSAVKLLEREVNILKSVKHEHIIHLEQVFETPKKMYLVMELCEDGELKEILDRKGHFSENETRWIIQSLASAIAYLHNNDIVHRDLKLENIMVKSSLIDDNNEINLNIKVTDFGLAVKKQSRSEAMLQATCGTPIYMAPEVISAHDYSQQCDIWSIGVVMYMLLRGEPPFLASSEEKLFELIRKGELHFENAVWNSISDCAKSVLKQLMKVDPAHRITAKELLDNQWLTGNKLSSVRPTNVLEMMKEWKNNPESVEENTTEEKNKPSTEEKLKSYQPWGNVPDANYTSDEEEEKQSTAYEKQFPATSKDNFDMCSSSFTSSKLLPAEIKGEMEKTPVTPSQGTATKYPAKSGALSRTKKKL
Gck, sequence (Q12851 whole entry): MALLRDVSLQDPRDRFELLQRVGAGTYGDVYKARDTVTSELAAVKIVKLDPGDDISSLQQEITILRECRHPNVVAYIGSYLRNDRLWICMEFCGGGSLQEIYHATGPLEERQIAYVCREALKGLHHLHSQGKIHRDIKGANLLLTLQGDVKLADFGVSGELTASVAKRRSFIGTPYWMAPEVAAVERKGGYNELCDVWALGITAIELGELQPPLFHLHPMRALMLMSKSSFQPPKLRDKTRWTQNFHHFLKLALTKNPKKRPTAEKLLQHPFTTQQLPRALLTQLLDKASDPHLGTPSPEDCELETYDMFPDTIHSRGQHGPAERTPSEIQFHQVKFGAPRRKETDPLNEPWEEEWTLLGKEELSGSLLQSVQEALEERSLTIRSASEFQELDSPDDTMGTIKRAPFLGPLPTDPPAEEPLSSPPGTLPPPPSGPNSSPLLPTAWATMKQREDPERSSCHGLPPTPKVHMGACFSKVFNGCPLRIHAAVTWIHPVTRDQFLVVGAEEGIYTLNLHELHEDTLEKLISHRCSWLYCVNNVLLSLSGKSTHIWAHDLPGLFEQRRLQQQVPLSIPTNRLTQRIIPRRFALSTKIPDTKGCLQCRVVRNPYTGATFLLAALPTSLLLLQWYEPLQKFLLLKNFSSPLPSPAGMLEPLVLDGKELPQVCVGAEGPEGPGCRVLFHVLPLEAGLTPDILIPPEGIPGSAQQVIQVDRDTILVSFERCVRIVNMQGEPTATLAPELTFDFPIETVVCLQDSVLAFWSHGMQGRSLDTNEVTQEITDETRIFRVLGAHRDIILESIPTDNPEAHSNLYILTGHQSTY
MLK1, sequence (P80192 whole entry, species assumed): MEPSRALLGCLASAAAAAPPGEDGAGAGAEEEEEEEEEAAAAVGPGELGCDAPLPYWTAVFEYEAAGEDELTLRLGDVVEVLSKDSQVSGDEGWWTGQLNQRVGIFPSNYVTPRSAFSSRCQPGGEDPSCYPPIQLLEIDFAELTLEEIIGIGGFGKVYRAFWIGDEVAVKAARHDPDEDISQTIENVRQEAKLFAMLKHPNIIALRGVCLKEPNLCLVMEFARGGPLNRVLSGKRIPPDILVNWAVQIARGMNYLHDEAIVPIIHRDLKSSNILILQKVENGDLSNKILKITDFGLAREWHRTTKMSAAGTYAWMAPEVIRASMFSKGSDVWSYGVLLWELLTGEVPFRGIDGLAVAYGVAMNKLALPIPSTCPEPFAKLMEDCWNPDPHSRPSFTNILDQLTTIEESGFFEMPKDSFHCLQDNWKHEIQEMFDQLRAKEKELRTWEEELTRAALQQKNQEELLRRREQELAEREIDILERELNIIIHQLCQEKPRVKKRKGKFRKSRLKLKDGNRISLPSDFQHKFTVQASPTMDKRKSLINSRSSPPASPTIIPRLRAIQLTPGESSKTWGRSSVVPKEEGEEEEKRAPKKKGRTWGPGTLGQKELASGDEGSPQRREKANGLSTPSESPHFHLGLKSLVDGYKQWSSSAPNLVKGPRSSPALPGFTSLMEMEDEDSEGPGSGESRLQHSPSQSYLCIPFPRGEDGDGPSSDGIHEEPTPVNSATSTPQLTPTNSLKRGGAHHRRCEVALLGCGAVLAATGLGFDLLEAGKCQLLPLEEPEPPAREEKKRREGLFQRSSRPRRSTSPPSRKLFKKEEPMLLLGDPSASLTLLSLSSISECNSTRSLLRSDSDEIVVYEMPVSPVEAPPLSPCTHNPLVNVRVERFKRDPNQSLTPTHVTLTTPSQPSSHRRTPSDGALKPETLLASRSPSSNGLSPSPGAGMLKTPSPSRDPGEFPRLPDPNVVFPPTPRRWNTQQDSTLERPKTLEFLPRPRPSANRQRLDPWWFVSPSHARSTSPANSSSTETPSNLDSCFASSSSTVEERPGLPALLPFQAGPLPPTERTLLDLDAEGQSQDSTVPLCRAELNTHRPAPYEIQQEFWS
Brsk1, sequence (Q8TDC3 whole entry, species assumed): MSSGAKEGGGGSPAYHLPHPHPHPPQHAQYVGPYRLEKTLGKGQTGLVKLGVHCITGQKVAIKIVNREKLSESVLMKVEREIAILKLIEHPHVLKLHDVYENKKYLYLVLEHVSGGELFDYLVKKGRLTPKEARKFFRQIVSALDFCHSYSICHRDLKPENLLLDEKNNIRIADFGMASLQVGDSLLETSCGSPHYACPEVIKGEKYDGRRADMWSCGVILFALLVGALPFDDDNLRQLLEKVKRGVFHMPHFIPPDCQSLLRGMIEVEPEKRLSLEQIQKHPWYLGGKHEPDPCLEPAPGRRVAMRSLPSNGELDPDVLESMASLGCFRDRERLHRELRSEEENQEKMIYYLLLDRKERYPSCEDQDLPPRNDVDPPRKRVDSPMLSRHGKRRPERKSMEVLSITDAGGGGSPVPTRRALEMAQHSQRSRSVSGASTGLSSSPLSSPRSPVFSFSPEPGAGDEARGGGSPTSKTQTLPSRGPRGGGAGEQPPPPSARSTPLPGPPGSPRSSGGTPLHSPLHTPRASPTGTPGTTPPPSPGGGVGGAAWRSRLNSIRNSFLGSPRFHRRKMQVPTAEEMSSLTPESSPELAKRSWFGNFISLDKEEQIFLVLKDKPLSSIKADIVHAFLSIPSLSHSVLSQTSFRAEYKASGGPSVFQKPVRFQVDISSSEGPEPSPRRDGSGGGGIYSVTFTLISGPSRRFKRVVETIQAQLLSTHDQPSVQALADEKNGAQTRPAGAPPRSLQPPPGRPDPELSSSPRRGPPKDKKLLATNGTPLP
IR, sequence (P06213 28-1382): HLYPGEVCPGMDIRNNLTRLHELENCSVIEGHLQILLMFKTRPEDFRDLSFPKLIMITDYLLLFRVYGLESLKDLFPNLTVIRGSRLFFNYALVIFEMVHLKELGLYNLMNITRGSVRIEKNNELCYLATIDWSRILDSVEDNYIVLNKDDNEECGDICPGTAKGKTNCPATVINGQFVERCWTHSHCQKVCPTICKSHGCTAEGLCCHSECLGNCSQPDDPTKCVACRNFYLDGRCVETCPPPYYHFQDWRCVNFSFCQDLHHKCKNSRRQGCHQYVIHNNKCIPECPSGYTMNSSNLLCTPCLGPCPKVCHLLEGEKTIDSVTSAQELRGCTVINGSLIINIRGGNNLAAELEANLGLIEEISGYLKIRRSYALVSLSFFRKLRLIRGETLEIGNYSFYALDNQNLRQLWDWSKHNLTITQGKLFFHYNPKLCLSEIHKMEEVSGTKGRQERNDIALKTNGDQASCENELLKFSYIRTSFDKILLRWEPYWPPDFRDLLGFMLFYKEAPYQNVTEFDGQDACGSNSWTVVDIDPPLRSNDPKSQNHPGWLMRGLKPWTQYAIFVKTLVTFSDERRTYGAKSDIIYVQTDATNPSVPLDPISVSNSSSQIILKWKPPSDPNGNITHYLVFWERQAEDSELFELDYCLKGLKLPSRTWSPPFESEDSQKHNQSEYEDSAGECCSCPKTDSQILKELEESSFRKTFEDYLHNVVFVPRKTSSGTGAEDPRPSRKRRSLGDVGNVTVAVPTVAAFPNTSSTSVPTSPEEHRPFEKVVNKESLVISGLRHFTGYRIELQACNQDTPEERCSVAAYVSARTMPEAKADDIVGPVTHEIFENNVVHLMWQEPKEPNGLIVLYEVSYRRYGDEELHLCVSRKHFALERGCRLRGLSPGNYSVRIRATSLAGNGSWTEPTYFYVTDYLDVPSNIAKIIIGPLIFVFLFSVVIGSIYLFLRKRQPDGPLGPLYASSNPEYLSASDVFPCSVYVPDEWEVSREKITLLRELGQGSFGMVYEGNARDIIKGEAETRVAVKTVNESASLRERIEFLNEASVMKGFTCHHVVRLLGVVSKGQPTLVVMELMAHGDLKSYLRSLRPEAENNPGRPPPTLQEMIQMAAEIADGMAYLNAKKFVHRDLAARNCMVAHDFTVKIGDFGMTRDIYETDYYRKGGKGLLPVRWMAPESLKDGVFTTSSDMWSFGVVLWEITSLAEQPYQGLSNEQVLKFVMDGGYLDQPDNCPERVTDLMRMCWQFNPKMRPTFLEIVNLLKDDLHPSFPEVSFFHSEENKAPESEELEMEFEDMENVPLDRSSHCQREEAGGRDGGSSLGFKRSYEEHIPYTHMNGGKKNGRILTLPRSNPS
Tak1, sequence (O43318 1-303 limits assumed): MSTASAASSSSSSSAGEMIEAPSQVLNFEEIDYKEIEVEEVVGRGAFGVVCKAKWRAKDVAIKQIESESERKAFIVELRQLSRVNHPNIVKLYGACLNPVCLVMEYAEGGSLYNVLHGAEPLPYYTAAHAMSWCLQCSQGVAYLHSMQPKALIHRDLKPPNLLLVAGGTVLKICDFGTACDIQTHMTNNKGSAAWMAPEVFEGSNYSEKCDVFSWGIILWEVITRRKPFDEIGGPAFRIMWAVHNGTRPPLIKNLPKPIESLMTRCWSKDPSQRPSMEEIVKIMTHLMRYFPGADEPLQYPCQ
Tak1, sequence (Q15750 437-504 partner limits assumed): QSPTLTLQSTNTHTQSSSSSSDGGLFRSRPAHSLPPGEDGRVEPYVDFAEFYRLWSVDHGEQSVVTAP

| LATS1 protein level (in words) (NUAK1 [1]) | remaining activity at 1 µM (Brsk1) [%] | remaining activity at 1 µM (IRAK4) [%] | remaining activity at 1 µM (FGFR1) [%] | remaining activity at 1 µM (CAMKKb) [%] | remaining activity at 1 µM (Tak1) [%] | remaining activity at 1 µM (MELK) [%] | remaining activity at 1 µM (IR) [%] | remaining activity at 1 µM (TrkA) [%] | remaining activity at 1 µM (STK33) [%] | remaining activity at 1 µM (Jak2) [%] | remaining activity at 1 µM (Gck) [%] | remaining activity at 1 µM (NUAK1 [2]) [%] | Percent of remaining activity (VEGFR) [%] | Percent of remaining activity (Phk) [%] | remaining activity at 1 µM (MLK1) [%] | Compound | cells still alive (Quiescent H358 cells) [%] |
| --- | --- | --- | --- | --- | --- | --- | --- | --- | --- | --- | --- | --- | --- | --- | --- | --- | --- |
| large increase | – | – | – | – | – | – | – | – | – | – | – | – | – | – | – | Cc1cncc2c1[nH]c1ccc3cc(OCCN(C)C)ccc3c12 [CH21, 3-(2-N,N-dimethylaminoethyloxy)-8-methyl-7H-benzo[e]pyrido(4,3-b)indole] | – |
| – | 22 | 25 | 24 | 22 | 6 | 31 | 15 | 5 | 31 | 21 | 11 | 4 | 16 | 10 | 27 | Cc1c[nH]c(=O)c2c1[nH]c1ccc3cc(OCCN(C)C)ccc3c12 [Compound C14, 3-(2-N,N-Dimethylaminoethoxy)-8-methyl-7H,10H-benzo[e]pyrido(4,3-b)indol-11-one] | 90 |
